{
  "source": "ChEMBL document CHEMBL5346964",
  "about": "“Discovery of LNP1892: A Precision Calcimimetic for the Treatment of Secondary Hyperparathyroidism” (J Med Chem, 2023)",
  "key": {"[1]": {"assay": "Cmax in Sprague-Dawley rat at 1 mg/kg, iv measured upto 24 hrs by LC-MS/MS analysis", "type": "ADME, organism-based", "set-up": "dose 1 mg/kg, time < 24 hrs, route iv", "conditions": "in vivo"}, "[2]": {"assay": "Oral bioavailability in Sprague-Dawley rat at 10 mg/kg measured upto 24 hrs by LC-MS/MS analysis", "type": "ADME, organism-based", "conditions": "in vivo"}, "Rattus norvegicus [3]": {"tested_on": "Rattus norvegicus", "assay": "Acute effect on parathyroid hormone in overnight fasted adenine diet-induced chronic kidney disease Wistar rat model assessed as reduction in plasma PTH level at 10 mg/kg, po measured after 2 hrs of post treatment by sandwich ELISA analysis", "type": "functional", "set-up": "scale not given: the % may be the effect or the level left"}, "Rattus norvegicus [4]": {"tested_on": "Rattus norvegicus", "assay": "Acute effect on parathyroid hormone in overnight fasted adenine diet-induced chronic kidney disease Wistar rat model assessed as reduction in plasma PTH level at 10 mg/kg, po measured after 4 hrs of post treatment by sandwich ELISA analysis", "type": "functional", "set-up": "scale not given: the % may be the effect or the level left"}, "[5]": {"assay": "Half life in Sprague-Dawley rat at 1 mg/kg, iv measured upto 24 hrs by LC-MS/MS analysis", "type": "ADME, organism-based", "conditions": "in vivo"}, "[6]": {"assay": "AUClast in Sprague-Dawley rat at 1 mg/kg, iv measured upto 24 hrs by LC-MS/MS analysis", "type": "ADME, organism-based", "set-up": "dose 1 mg/kg, time < 24 hrs, route iv", "conditions": "in vivo"}, "Rattus norvegicus [7]": {"tested_on": "Rattus norvegicus", "assay": "Acute effect on parathyroid hormone in overnight fasted adenine diet-induced chronic kidney disease Wistar rat model assessed as reduction in plasma PTH level at 10 mg/kg, po measured after 1 hrs of post treatment by sandwich ELISA analysis", "type": "functional", "set-up": "scale not given: the % may be the effect or the level left"}, "[8]": {"assay": "Tmax in Sprague-Dawley rat at 10 mg/kg, po measured upto 24 hrs by LC-MS/MS analysis", "type": "ADME, organism-based", "conditions": "in vivo"}, "[9]": {"assay": "Effect on parathyroid hormone in overnight fasted Sprague-Dawley rat assessed as reduction in plasma PTH level at 10 mg/kg, po measured after 6 hrs of post treatment by sandwich ELISA analysis (reference value: 33%)", "type": "functional", "set-up": "scale not given: the % may be the effect or the level left"}, "hERG [10]": {"target": "T1, hERG (Homo sapiens, UniProt Q12809)", "T1 sequence (Q12809 whole entry)": "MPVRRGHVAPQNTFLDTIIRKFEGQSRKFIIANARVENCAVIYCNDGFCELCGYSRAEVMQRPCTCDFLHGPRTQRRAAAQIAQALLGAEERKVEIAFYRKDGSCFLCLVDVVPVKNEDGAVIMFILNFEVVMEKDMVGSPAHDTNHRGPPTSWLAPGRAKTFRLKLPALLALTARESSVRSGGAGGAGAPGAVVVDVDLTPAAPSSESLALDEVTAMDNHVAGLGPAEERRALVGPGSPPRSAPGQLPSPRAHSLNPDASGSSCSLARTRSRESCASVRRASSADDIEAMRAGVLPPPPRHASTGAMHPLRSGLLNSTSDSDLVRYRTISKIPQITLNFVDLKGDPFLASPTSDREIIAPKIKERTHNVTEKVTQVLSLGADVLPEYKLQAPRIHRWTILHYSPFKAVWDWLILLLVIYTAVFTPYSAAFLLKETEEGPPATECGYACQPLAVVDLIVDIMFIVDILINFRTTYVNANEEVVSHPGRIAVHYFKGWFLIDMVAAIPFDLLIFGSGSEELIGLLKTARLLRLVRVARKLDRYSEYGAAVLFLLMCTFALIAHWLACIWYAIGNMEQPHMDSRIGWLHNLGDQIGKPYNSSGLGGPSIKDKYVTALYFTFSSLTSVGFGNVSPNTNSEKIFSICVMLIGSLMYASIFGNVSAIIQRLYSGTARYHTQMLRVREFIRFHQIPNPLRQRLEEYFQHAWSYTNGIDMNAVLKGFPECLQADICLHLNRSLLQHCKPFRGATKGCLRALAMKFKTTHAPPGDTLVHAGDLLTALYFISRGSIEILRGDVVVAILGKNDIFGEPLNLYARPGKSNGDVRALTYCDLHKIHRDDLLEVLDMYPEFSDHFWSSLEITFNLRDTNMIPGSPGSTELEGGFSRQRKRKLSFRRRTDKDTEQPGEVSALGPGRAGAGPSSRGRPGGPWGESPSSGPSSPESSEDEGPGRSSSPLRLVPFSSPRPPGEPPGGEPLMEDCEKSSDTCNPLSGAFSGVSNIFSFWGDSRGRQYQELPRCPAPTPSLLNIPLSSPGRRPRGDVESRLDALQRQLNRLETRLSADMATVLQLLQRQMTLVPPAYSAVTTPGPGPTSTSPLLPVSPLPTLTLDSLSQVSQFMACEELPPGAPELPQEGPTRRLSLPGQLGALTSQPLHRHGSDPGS", "assay": "Inhibition of hERG at 1 uM relative to control", "type": "toxicity"}, "[11]": {"assay": "Clearance in Sprague-Dawley rat at 1 mg/kg, iv measured upto 24 hrs by LC-MS/MS analysis", "type": "ADME, organism-based", "conditions": "in vivo"}, "[12]": {"assay": "Effect on parathyroid hormone in overnight fasted Sprague-Dawley rat assessed as reduction in plasma PTH level at 10 mg/kg, po measured after 4 hrs of post treatment by sandwich ELISA analysis (reference value: 18%)", "type": "functional", "set-up": "scale not given: the % may be the effect or the level left"}, "[13]": {"assay": "Microsomal stability in rat liver microsomes assessed as parent compound remaining at 1 uM measured upto 30 mins in presence of NADPH by LC-MS/MS analysis", "type": "ADME, Microsome", "conditions": "read-out: Stability"}, "[14]": {"assay": "Volume of distribution at steady state in Sprague-Dawley rat at 1 mg/kg, iv measured upto 24 hrs by LC-MS/MS analysis", "type": "ADME, organism-based", "conditions": "in vivo, read-out: Vdss"}, "[15]": {"assay": "Effect on parathyroid hormone in overnight fasted Sprague-Dawley rat assessed as reduction in plasma PTH level at 10 mg/kg, po measured after 2 hrs of post treatment by sandwich ELISA analysis", "type": "functional", "set-up": "scale not given: the % may be the effect or the level left"}, "hERG [16]": {"target": "T1, hERG", "assay": "Inhibition of hERG at 10 uM relative to control", "type": "toxicity"}, "Cytochrome P450 2D6": {"target": "Cytochrome P450 2D6 (Homo sapiens, UniProt P10635)", "sequence (P10635 whole entry)": "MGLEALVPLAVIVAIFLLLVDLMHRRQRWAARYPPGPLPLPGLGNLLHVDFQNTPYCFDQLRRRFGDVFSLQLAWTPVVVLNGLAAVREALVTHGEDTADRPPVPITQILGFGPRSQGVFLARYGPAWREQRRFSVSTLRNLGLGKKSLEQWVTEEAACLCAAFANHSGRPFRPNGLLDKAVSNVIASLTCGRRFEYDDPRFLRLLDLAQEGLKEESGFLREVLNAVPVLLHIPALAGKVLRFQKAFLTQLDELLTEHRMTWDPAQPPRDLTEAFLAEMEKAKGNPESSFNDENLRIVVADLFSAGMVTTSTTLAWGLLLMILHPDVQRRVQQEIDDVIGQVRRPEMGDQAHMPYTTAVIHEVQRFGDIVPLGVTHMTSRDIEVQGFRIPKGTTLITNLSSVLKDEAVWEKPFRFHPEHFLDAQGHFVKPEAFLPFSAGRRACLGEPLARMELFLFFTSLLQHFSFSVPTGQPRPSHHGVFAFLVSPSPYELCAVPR", "assay": "Inhibition of CYP2D6 in human liver microsomes preincubated for 5 mins followed by NADPH addition by LC-MS/MS analysis", "type": "ADME, Microsome"}, "[17]": {"target": "T2, Extracellular calcium-sensing receptor (Homo sapiens, UniProt P41180)", "T2 sequence (P41180 whole entry)": "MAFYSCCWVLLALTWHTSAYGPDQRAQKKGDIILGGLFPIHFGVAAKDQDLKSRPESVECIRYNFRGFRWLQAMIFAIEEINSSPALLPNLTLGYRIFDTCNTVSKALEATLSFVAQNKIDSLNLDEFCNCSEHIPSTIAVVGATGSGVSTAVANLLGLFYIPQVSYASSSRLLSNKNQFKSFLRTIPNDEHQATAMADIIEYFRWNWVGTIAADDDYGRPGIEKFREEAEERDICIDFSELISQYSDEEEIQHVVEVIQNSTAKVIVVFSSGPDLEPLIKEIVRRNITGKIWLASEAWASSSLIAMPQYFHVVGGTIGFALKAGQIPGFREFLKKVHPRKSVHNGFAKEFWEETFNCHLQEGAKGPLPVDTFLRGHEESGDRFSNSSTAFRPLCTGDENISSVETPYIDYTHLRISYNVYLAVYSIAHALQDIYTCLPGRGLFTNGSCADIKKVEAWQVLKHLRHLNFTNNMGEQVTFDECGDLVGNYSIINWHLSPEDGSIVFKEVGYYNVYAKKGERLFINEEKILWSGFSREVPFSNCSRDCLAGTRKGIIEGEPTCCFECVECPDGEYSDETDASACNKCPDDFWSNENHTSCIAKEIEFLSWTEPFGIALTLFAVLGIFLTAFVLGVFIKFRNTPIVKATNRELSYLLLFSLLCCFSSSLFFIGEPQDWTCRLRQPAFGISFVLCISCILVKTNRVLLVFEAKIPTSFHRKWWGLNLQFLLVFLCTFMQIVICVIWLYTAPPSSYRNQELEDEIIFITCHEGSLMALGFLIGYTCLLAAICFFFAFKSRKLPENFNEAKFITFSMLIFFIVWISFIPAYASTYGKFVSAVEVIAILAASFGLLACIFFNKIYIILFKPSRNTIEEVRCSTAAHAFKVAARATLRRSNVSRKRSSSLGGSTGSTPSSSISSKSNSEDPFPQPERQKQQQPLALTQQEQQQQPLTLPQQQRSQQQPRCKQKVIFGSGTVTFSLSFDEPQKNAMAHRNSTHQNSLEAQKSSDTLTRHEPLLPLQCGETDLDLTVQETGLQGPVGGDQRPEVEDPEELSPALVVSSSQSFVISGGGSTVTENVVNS", "assay": "Agonist activity at human CaSR expresssed in HEK293 cells in presence of glucose by Fluo4NW dye based FLIPR assay", "type": "functional, cell-based", "conditions": "read-out: EC50"}, "Rattus norvegicus [18]": {"tested_on": "Rattus norvegicus", "assay": "Effect on parathyroid hormone in po dosed overnight fasted Sprague-Dawley rat assessed as reduction in plasma PTH level measured after 0.5 to 6 hrs of post treatment by sandwich ELISA analysis", "type": "functional, organism-based", "conditions": "dose 3-30 mg/kg, time 0.5-6 hrs"}, "Rattus norvegicus [19]": {"tested_on": "Rattus norvegicus", "assay": "Subchronic effect on parathyroid hormone in overnight fasted adenine diet-induced chronic kidney disease Wistar rat model plasma assessed as reduction in plasma PTH level at 3 mg/kg, po qd measured after 27 days of post treatment by sandwich ELISA analysis", "type": "functional", "set-up": "scale not given: the % may be the effect or the level left", "conditions": "time 27 day"}, "Rattus norvegicus [20]": {"tested_on": "Rattus norvegicus", "assay": "Chronic effect on parathyroid hormone in overnight fasted adenine diet-induced chronic kidney disease Wistar rat model plasma assessed as reduction in plasma PTH level at 10 mg/kg, po qd measured after 27 days of post treatment by sandwich ELISA analysis", "type": "functional", "set-up": "scale not given: the % may be the effect or the level left", "conditions": "time 27 day"}, "[21]": {"assay": "Microsomal stability in human liver microsomes assessed as parent compound remaining at 1 uM measured upto 30 mins in presence of NADPH by LC-MS/MS analysis", "type": "ADME, Microsome", "conditions": "liver microsomes, read-out: Stability"}, "[22]": {"assay": "Effect on parathyroid hormone in overnight fasted Sprague-Dawley rat assessed as reduction in plasma PTH level at 10 mg/kg, po measured after 0.5 hrs of post treatment by sandwich ELISA analysis", "type": "functional", "set-up": "scale not given: the % may be the effect or the level left"}, "[23]": {"assay": "Cmax in Sprague-Dawley rat at 10 mg/kg, po measured upto 24 hrs by LC-MS/MS analysis", "type": "ADME, organism-based", "set-up": "time < 24 hrs, dose 10 mg/kg, route po", "conditions": "in vivo"}, "[24]": {"assay": "AUClast in Sprague-Dawley rat at 10 mg/kg, po measured upto 24 hrs by LC-MS/MS analysis", "type": "ADME, organism-based", "set-up": "dose 10 mg/kg, time < 24 hrs, route po", "conditions": "in vivo"}},
  "data": [
    {"smiles": "C[C@@H](NCCCc1cccc(C(F)(F)F)c1)c1cccc2ccccc12", "note": "[CINACALCET]", "values": [
      {"measurement": "Cmax", "setting": "[1]", "value": 500, "unit": "nM"},
      {"measurement": "bioavailability", "setting": "[2]", "value": 19, "unit": "%"},
      {"measurement": "Activity", "setting": "Rattus norvegicus [3]", "value": 97, "unit": "%"},
      {"measurement": "Activity", "setting": "Rattus norvegicus [4]", "value": 71, "unit": "%"},
      {"measurement": "half-life", "setting": "[5]", "value": 6, "unit": "h"},
      {"measurement": "AUC(0-t) at 24 h", "setting": "[6]", "value": 1.02, "unit": "µM·h"},
      {"measurement": "Activity", "setting": "Rattus norvegicus [7]", "value": 92, "unit": "%"},
      {"measurement": "Tmax", "setting": "[8]", "value": 0.5, "unit": "h"},
      {"measurement": "Activity", "setting": "[9]", "value": 61, "unit": "%"},
      {"measurement": "inhibition at 1 µM", "setting": "hERG [10]", "value": 19, "unit": "%"},
      {"measurement": "clearance", "setting": "[11]", "value": 44, "unit": "mL/min/kg"},
      {"measurement": "Activity", "setting": "[12]", "value": 74, "unit": "%"},
      {"measurement": "remaining at 0.5 h, 1 µM", "setting": "[13]", "value": 4, "unit": "%"},
      {"measurement": "Vd", "setting": "[14]", "value": 23, "unit": "L/kg"},
      {"measurement": "Activity", "setting": "[15]", "value": 99, "unit": "%"},
      {"measurement": "inhibition at 10 µM", "setting": "hERG [16]", "value": 97, "unit": "%"},
      {"measurement": "IC50", "setting": "Cytochrome P450 2D6", "value": "> 50000", "unit": "nM"},
      {"measurement": "EC50", "setting": "[17]", "value": 4, "unit": "nM"},
      {"measurement": "Activity", "setting": "Rattus norvegicus [18]", "value": "Dose-Dependent Effect"},
      {"measurement": "Activity", "setting": "Rattus norvegicus [19]", "value": 37, "unit": "%"},
      {"measurement": "Activity", "setting": "Rattus norvegicus [20]", "value": 58, "unit": "%"},
      {"measurement": "remaining at 0.5 h, 1 µM", "setting": "[21]", "value": 65, "unit": "%"},
      {"measurement": "Activity", "setting": "[22]", "value": 92, "unit": "%"},
      {"measurement": "Cmax", "setting": "[23]", "value": 270, "unit": "nM"},
      {"measurement": "AUC(0-t) at 24 h", "setting": "[24]", "value": 1.9, "unit": "µM·h"}
    ]}
  ]
}
